Reference: patent US7012089B2, “[1,4]Diazocino[7,8,1-hi]indole derivatives as antipsychotic and antiobesity agents” (Wyeth, priority 2002, dated 2006)
Where a name gives a salt, the structure may show the parent alone. Read-outs that look alike come from different tables or passages of the source.

How the values were obtained:
human 5-HT2C receptor = target: T1, human 5-HT2C receptor (Homo sapiens, UniProt P28335); assay: 5-HT2C receptor-stimulated calcium mobilization (FLIPR) in CHO cells; assay type: cell-based; conditions: for Emax: CHO, read-out: 5-HT2C Function Emax (%)
T1 sequence (P28335 33-458): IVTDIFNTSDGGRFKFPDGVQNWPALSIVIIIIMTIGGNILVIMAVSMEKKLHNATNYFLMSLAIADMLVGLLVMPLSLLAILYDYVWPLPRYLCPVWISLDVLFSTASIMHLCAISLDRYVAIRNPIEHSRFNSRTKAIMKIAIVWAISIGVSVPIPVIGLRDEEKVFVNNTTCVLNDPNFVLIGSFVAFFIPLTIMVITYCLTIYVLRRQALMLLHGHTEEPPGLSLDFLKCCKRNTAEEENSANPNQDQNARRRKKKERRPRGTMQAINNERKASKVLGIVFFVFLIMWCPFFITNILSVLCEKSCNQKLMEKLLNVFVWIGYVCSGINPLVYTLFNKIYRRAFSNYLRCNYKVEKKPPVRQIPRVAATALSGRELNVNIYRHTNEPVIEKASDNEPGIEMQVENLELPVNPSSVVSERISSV

[1] = target: T2, human 5-hydroxytryptamine-2C (h-5-HT2C) receptor (Homo sapiens, UniProt P28335); assay: [125I]DOI binding to membranes of CHO cells expressing the h-5-HT2C receptor
T2 sequence (P28335 33-458): T1 sequence (P28335 33-458)

[2] = 5-HT2c Affinity KI (nM), displacement of [125I]DOI, CHO cell membranes

SMILES | melting point [°C] | other results
CN1CCc2ccc(Cl)c3c2N(CC1)C1CCCC31 (stereo not drawn) (as salt: fumarate) [Example 36, 8-Chloro-3-methyl-2,3,4,5,9,10,11,11a-octahydro-1H,8bH-cyclopenta[b][1,4]diazocino[7,8,1-hi]indole] | 179 to 181 | –
CN1CCc2ccc(Cl)c3c2N(CC1)C1CCCCC31 (stereo not drawn) (as salt: fumarate) [Example 37, 8-Chloro-3-methyl-2,3,4,5,8b,9,10,11,12,12a-decahydro-1H-[1,4]diazocino[7,8,1-jk]carbazole] | 178 to 180 | –
Clc1ccc2c3c1c1c(n3CCNCC2)CCC1 (as salt: fumarate) [Example 38, 8-Chloro-2,3,4,5,10,11-hexahydro-1H,9H-cyclopenta[b][1,4]diazocino[7,8,1-hi]indole] | 226 to 228 | –
Clc1ccc2c3c1c1c(n3CCNCC2)CCCC1 (as salt: fumarate) [Example 39, 8-Chloro-2,3,4,5,9,10,11,12-octahydro-1H-[1,4]diazocino[7,8,1-jk]carbazole] | 199 to 201 | –
Clc1ccc2c3c1C1CCCC1N3CCNCC2 (stereo not drawn) (as salt: fumarate) [Example 40, 8-Chloro-2,3,4,5,9,10,11,11a-octahydro-1H,8bH-cyclopenta[b][1,4]diazocino[7,8,1-hi]indole] | 169 to 170 | –
Clc1ccc2c3c1C1CCCCC1N3CCNCC2 (stereo not drawn) (as salt: fumarate) [Example 41, 8-Chloro-2,3,4,5,8b,9,10,11,12,12a-decahydro-1H-[1,4]diazocino[7,8,1-jk]carbazole] | 199 to 200 | –
CN1CCc2cccc3c2N(CC1)C1CCSCC31 (stereo not drawn) (as salt: fumarate) [Example 44, 3-Methyl-2,3,4,5,9,10,11,12-octahydro-1H,9H-[1,4]diazocino[7,8,1-hi]thiopyrano[4,3-b]indole] | 187 to 189 | –
c1cc2c3c(c1)C1CCCC1N3CCNCC2 (stereo not drawn) (as salt: hydrochloride) [Example 4, 2,3,4,5,9,10,11,11a-Octahydro-1H,8bH-cyclopenta[b][1,4]diazocino[7,8,1-hi]indole] | 137 to 140 | –
Fc1ccc2c3c1[C@H]1CCCC[C@H]1N3CCNCC2 (single isomer, unassigned) (as salt: fumarate) [Example 32, (+)-(8bR*,12aR*)-8-Fluoro-2,3,4,5,8b,9,10,11,12,12a-decahydro-1H-[1,4]diazocino[7,8,1-jk]carbazole] | > 130 | –
Fc1ccc2c3c1[C@H]1CCCC[C@H]1N3CCNCC2 (single isomer, unassigned) (as salt: fumarate) [Example 33, (−)-(8bR*,12aR*)-8-Fluoro-2,3,4,5,8b,9,10,11,12,12a-decahydro-1H-[1,4]diazocino[7,8,1-jk]carbazole] | 94 to 96 | –
Clc1ccc2c3c1[C@H]1CCCC[C@H]1N3CCNCC2 (single isomer, unassigned) (as salt: fumarate) [Example 42, (+)-(8bR*,12aR*)-8-Chloro-2,3,4,5,8b,9,10,11,12,12a-decahydro-1H-[1,4]diazocino[7,8,1-jk]carbazole] | 170 to 173 | –
Clc1ccc2c3c1[C@H]1CCCC[C@H]1N3CCNCC2 (single isomer, unassigned) (as salt: fumarate) [Example 43, (−)-(8bR*,12aR*)-8-Chloro-2,3,4,5,8b,9,10,11,12,12a-decahydro-1H-[1,4]diazocino[7,8,1-jk]carbazole] | 168 to 171 | –
c1cc2c3c(c1)[C@H]1CCCC[C@H]1N3CCNCC2 (single isomer, unassigned) (as salt: fumarate) [Example 47, (+)-(8bR*,12aR*)-2,3,4,5,8b,9,10,11,12,12a-Decahydro-1H-[1,4]diazocino[7,8,1-jk]carbazole] | 139 to 140 | –
c1cc2c3c(c1)[C@H]1CCC[C@H]1N3CCNCC2 (single isomer, unassigned) (as salt: hydrochloride) [Example 45, (+)-(8bR*,11aR*)-2,3,4,5,9,10,11,11a-Octahydro-1H,8bH-cyclopenta[b][1,4]diazocino[7,8,1-hi]indole] | > 130 | –
CN1CCc2cccc3c4c(n(c23)CC1)CCC4 [Example 1, 3-Methyl-2,3,4,5,10,11-hexahydro-1H,9H-cyclopenta[b][1,4]diazocino[7,8,1-hi]indole] | 128 to 130 | EC50 (human 5-HT2C receptor): 48 nM; Emax (human 5-HT2C receptor): 45%; Ki [1, 2]: 35 nM
CN1CCc2cccc3c4c(n(c23)CC1)CCCC4 [Example 5] | 129 to 131 | EC50 (human 5-HT2C receptor): 68 nM; Emax (human 5-HT2C receptor): 50%; Ki [1, 2]: 10 nM
CN1CCc2cccc3c4c(n(c23)CC1)CCSC4 [Example 11, 3-Methyl-2,3,4,5,11,12-hexahydro-1H,9H-[1,4]diazocino[7,8,1-hi]thiopyrano[4,3-b]indole] | 123 to 125 | Ki [1, 2]: 38 nM
CN1CCc2c(Cl)ccc3c4c(n(c23)CC1)CCC4 [Example 12, 6-Chloro-3-methyl-2,3,4,5,10,11-hexahydro-1H,9H-cyclopenta[b][1,4]diazocino[7,8,1-hi]indole] | 138 to 140 | Ki ([1]; read-out: 5-HT2c Affinity KI): 250 nM
CN1CCc2c(Cl)ccc3c4c(n(c23)CC1)CCCC4 [Example 13, 6-Chloro-3-methyl-2,3,4,5,9,10,11,12-octahydro-1H-[1,4]diazocino[7,8,1-jk]carbazole] | 128 to 130 | Ki [1, 2]: 34 nM
CN1CCc2c(Cl)ccc3c4c(n(c23)CC1)CCCCC4 [Example 14, 6-Chloro-3-methyl-2,3,4,5,10,11,12,13-octahydro-1H,9H-cyclohepta[b][1,4]diazocino[7,8,1-hi]indole] | 132 to 134 | Ki ([1]; read-out: 5-HT2c Affinity KI): 250 nM
